Reference: ChEMBL document CHEMBL3351836, “Inhibition of carbonic anhydrase isoforms I, II, IX and XII with novel Schiff bases: identification of selective inhibitors for the tumor-associated isoforms over the cytosolic ones” (Bioorg Med Chem, 2014)

biological target: Carbonic anhydrase 9 (Homo sapiens, UniProt Q16790); assay: Inhibition of human CA-9 after 15 mins by stopped-flow CO2 hydration method

| Structure (SMILES) | Ki |
| --- | --- |
| NS(=O)(=O)c1ccc(/N=C/c2ccc(Br)cc2O)cc1 | 28.1 nM |
| NS(=O)(=O)c1ccc(/N=C/c2csc3ccccc23)cc1 | 197 nM |
| NS(=O)(=O)c1ccc(/N=C/c2ccc(-c3ccccc3)cc2)c(F)c1 | 113 nM |
| NS(=O)(=O)c1ccc(CC/N=C/c2ccc(-c3ccccc3)cc2)cc1 | 244 nM |
| NS(=O)(=O)c1ccc(CC/N=C/c2cccc(Br)c2O)cc1 | 251 nM |
| COc1ccc(/C=N/CCc2ccc(S(N)(=O)=O)cc2)c(O)c1 | 1870 nM |
| NS(=O)(=O)c1ccc(CC/N=C/c2ccc(Br)cc2O)cc1 | 106 nM |
| NS(=O)(=O)c1ccc(CC/N=C/c2c[nH]c3ccc(Br)cc23)cc1 | 1880 nM |
| NS(=O)(=O)c1ccc(CC/N=C/c2c(F)c(F)cc(F)c2F)cc1 | 213 nM |

Further lines, results first:

| Ki | Structure (SMILES) |
| --- | --- |
| 162 nM | NS(=O)(=O)c1ccc(/N=C/c2ccc(-c3ccccn3)cc2)cc1 |
| 165 nM | NS(=O)(=O)c1ccc(/N=C/c2ccco2)c(F)c1 |
| 193 nM | NS(=O)(=O)c1ccc(CC/N=C/c2ccc(S(=O)(=O)O)o2)cc1 |
| 154 nM | COc1cc([N+](=O)[O-])ccc1/C=N/CCc1ccc(S(N)(=O)=O)cc1 |
| 27.9 nM | NS(=O)(=O)c1ccc(CC/N=C/c2ccc(-c3ccccn3)cc2)cc1 |
| 23.6 nM | CSc1ccc(/C=N/CCc2ccc(S(N)(=O)=O)cc2)cc1 |
| 18.5 nM | N#Cc1ccc(/C=N/CCc2ccc(S(N)(=O)=O)cc2)cc1 |
